In US7820630B2, “Substituted indole-O-glucosides” (Janssen Pharmaceutica NV, priority 2003, dated 2010):

How the values were obtained:
human SGLT1 = biological target: T1, human SGLT1 (Homo sapiens, UniProt P13866); test: Cell-based assay for sodium-dependent glucose transport (14C-AMG uptake), CHOK-SGLT1; conditions: CHO-K1 cells stably expressing human SGLT1; for IC50: Na-dependent 14C-AMG uptake; for inhibition at 10 µM: 10 μM compound, read-out: CHOK-SGLT1 % Inh. @ 10 μM
T1 construct: expressed in transfected cells
T1 sequence (P13866 1-664): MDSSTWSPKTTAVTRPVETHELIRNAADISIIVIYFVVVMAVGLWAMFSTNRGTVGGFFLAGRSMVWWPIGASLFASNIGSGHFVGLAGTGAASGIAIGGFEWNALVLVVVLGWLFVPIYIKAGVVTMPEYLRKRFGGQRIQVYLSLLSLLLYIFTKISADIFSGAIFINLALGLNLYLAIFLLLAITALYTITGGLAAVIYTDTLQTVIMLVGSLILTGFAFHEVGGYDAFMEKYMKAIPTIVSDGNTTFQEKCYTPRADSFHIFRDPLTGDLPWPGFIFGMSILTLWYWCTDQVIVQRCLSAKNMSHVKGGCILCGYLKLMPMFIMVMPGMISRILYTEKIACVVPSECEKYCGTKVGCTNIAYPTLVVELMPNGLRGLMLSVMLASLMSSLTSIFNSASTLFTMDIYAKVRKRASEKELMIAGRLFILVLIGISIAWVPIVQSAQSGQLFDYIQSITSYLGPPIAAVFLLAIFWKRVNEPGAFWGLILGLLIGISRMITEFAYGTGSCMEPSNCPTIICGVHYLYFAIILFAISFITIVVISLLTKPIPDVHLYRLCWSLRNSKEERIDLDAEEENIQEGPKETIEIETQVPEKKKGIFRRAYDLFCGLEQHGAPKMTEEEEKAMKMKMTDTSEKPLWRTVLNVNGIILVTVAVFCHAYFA
Description: (§1) Cloning of the human SGLT1 and human SGLT2 cDNAs and construction of the mammalian expression vector: The human SGLT1 cDNA (Genbank M24847) was cloned from human small intestine. Human SGLT2 cDNA (Genbank M95549) was cloned from human kidney. Both full cDNAs were subcloned into pcDNA and sequenced to verify the integrity of the construct.
(§2) Generation of CHO-K1 cells stably expressing human SGLT1 or human SGLT2: Transfection of CHO-K1 cells was performed using DMRIE-C reagent (Life Technologies, Gaithersburg, Md.). Transfectants were then selected in the presence of the antibiotic G418 (Gibco-BRL, Grand Island, N.Y.) at 400 μg/ml. Individual clones were then characterized using the functional assay described below.
(§3) Cell-based assay for sodium-dependent glucose transport: Cell lines stably expressing human SGLT1 or SGLT2 were then used for functional analysis of Na+-dependent glucose uptake. Briefly, cells were plated at a density of 65,000 cells per well in a 96-well plate and allowed to grow for 48 hours. Cells were subsequently washed one time with Assay Buffer (50 mM HEPES pH […], 5 mM KCl, 1 mM MgCl2, 1 mM CaCl2 and 137 mM NaCl) and treated with compound in the absence or presence of NaCl for 15 minutes. Cells were then labeled with ^14C-α-methylglucopyranoside (AMG, Sigma, St. Louis, Mo.), a non-metabolizable glucose analog specific for sodium-dependent glucose transporters as previously described (Peng, H. and Lever J. E. Post-transcriptional regulation of Na^+/glucose cotransporter (SGLT1) gene expression in LLC-PK1 cells. J Biol Chem 1995; 270:20536-20542.). After 2 hours the labeled cells were washed three times with ice-cold PBS. After aspiration, cells were solubilized using Microscint 20 (Packard, Meriden, Conn.) and Na-dependent ^14C-AMG uptake was quantified by measuring radioactivity. Plates were counted in a TopCount (Packard, Meriden, Conn.). Results are reported as the % inhibition or IC50 value from a representative experiment. Variability for the functional assay was typically within 20%.

human SGLT2 = biological target: T2, human SGLT2 (Homo sapiens, UniProt P31639); test: Cell-based assay for sodium-dependent glucose transport (14C-AMG uptake), CHOK-SGLT2; conditions: CHO-K1 cells stably expressing human SGLT2; for IC50: Na-dependent 14C-AMG uptake
T2 construct: expressed in transfected cells
T2 sequence (P31639 1-672): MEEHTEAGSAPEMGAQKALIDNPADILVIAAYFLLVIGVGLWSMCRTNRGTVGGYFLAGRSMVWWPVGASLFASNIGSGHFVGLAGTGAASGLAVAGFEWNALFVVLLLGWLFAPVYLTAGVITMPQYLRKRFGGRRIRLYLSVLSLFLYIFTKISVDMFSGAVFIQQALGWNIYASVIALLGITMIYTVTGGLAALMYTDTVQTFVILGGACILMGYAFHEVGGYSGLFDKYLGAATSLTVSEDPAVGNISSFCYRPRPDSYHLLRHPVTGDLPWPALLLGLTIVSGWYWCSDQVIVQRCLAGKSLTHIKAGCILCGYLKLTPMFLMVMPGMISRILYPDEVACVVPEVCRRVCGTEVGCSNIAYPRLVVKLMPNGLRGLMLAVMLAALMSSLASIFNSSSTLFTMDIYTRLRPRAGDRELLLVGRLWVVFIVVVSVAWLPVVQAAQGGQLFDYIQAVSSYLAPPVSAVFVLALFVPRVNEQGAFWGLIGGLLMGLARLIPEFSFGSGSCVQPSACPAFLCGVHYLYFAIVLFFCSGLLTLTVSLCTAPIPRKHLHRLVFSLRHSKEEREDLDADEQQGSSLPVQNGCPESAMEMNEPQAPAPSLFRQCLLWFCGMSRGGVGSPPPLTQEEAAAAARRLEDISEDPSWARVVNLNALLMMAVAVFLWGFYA
Description: as §1, §2, §3

SMILES	IC50 (human SGLT1) [nM]	IC50 (human SGLT2) [nM]	also measured
OC[C@H]1O[C@@H](Oc2cccc3[nH]cc(CCc4ccc5c(c4)CCO5)c23)[C@H](O)[C@@H](O)[C@@H]1O [Example 1, 2-{3-[2-(2,3-Dihydro-benzofuran-5-yl)-ethyl]-1H-indol-4-yloxy} β-D-glucopyranoside]	148	20	–
CC(=O)OC[C@H]1O[C@@H](Oc2cccc3[nH]cc(CCc4ccc5c(c4)CCO5)c23)[C@H](O)[C@@H](O)[C@@H]1O [Example 2, 2-{3-[2-(2,3-Dihydro-benzofuran-5-yl)-ethyl]-1H-indol-4-yloxy}-6-O-acetyl β-D-glucopyranoside]	1360	158	–
Cn1cc(CCc2ccc3c(c2)CCO3)c2c(O[C@@H]3O[C@H](CO)[C@@H](O)[C@H](O)[C@H]3O)cccc21 [Example 3, 2-{3-[2-(2,3-Dihydro-benzofuran-5-yl)-ethyl]-1-methyl-1H-indol-4-yloxy} β-D-glucopyranoside]	195	62	–
OC[C@H]1O[C@@H](Oc2cccc3[nH]cc(CCc4ccc5c(c4)OCO5)c23)[C@H](O)[C@@H](O)[C@@H]1O [Example 4, 2-[3-(2-Benzo[1,3]dioxol-5-yl-ethyl)-1H-indol-4-yloxy] β-D-glucopyranoside]	823	98	–
OC[C@H]1O[C@@H](Oc2cccc3[nH]cc(CCc4ccc5c(c4)OCCO5)c23)[C@H](O)[C@@H](O)[C@@H]1O [Example 5, 2-{3-[2-(2,3-Dihydro-benzo[1,4]dioxin-6-yl)-ethyl]-1H-indol-4-yloxy}-β-D-glucopyranoside]	3380	146	–
OC[C@H]1O[C@@H](Oc2cccc3[nH]cc(CCc4ccc5ccccc5c4)c23)[C@H](O)[C@@H](O)[C@@H]1O [Example 6, 2-[3-(2-Naphthalen-2-yl-ethyl)-1H-indol-4-yloxy]-β-D-glucopyranoside]	–	149	–
COc1ccc(CCc2c[nH]c3cccc(O[C@@H]4O[C@H](CO)[C@@H](O)[C@H](O)[C@H]4O)c23)cc1 [Example 7, 2-{3-[2-(4-Methoxy-phenyl)-ethyl]-1H-indol-4-yloxy}-β-D-glucopyranoside]	560	142	–
CCOc1ccc(CCc2c[nH]c3cccc(O[C@@H]4O[C@H](CO)[C@@H](O)[C@H](O)[C@H]4O)c23)cc1 [Example 8, 2-{3-[2-(4-Ethoxy-phenyl)-ethyl]-1H-indol-4-yloxy}-β-D-glucopyranoside]	1340	183	–
CCc1ccc(CCc2c[nH]c3cccc(O[C@@H]4O[C@H](CO)[C@@H](O)[C@H](O)[C@H]4O)c23)cc1 [Example 9, 2-{3-[2-(4-Ethyl-phenyl)-ethyl]-1H-indol-4-yloxy}-β-D-glucopyranoside]	–	–	inhibition at 10 µM (human SGLT1): 46%; inhibition at 1 µM (human SGLT2; 1 μM compound, read-out: CHOK-SGLT2 % Inh. @ 1 μM): 50%
COc1ccc(CCc2c[nH]c3cc(C)cc(O[C@@H]4O[C@H](CO)[C@@H](O)[C@H](O)[C@H]4O)c23)cc1 [Example 10, 2-{3-[2-(4-Methoxy-phenyl)-ethyl]-6-methyl-1H-indol-4-yloxy}-β-D-glucopyranoside]	2730	376	–
CCc1ccc(Cc2c[nH]c3cccc(O[C@@H]4O[C@H](CO)[C@@H](O)[C@H](O)[C@H]4O)c23)cc1 [Example 11, 2-[3-(4-Ethyl-benzyl)-1H-indol-4-yloxy]-β-D-glucopyranoside]	1810	24	–
CCc1ccc(Cc2c[nH]c3cccc(O[C@@H]4O[C@H](COC(=O)OC)[C@@H](O)[C@H](O)[C@H]4O)c23)cc1 [Example 12, 2-[3-(4-Ethyl-benzyl)-1H-indol-4-yloxy]-6-O-methoxycarbonyl-β-D-glucopyranoside]	–	660	–
CCOC(=O)OC[C@H]1O[C@@H](Oc2cccc3[nH]cc(Cc4ccc(CC)cc4)c23)[C@H](O)[C@@H](O)[C@@H]1O [Example 13, 2-[3-(4-Ethyl-benzyl)-1H-indol-4-yloxy]-6-O-ethoxycarbonyl-β-D-glucopyranoside]	–	650	–
CCCCCC(=O)OC[C@H]1O[C@@H](Oc2cccc3[nH]cc(Cc4ccc(CC)cc4)c23)[C@H](O)[C@@H](O)[C@@H]1O [Example 14, 2-[3-(4-Ethyl-benzyl)-1H-indol-4-yloxy]-6-O-hexanoyl-β-D-glucopyranoside]	–	206	inhibition at 10 µM (human SGLT1): 71%
Cc1ccc(Cc2c[nH]c3cccc(O[C@@H]4O[C@H](CO)[C@@H](O)[C@H](O)[C@H]4O)c23)cc1 [Example 15, 2-[3-(4-Methyl-benzyl)-1H-indol-4-yloxy]-β-D-glucopyranoside]	3880	53	–
Cc1ccc(Cc2c[nH]c3cccc(O[C@@H]4O[C@H](CO)[C@@H](O)[C@H](O)[C@H]4O)c23)cc1F [Example 16, 2-[3-(3-Fluoro-4-methyl-benzyl)-1H-indol-4-yloxy]-β-D-glucopyranoside]	–	67	inhibition at 3 µM (human SGLT1; 3 μM compound, read-out: CHOK-SGLT1 % Inh. @ 3 μM): 42%
CCCc1ccc(Cc2c[nH]c3cccc(O[C@@H]4O[C@H](CO)[C@@H](O)[C@H](O)[C@H]4O)c23)cc1 [Example 17, 2-[3-(4-propyl-benzyl)-1H-indol-4-yloxy]-β-D-glucopyranoside]	–	49	–
CC(C)c1ccc(Cc2c[nH]c3cccc(O[C@@H]4O[C@H](CO)[C@@H](O)[C@H](O)[C@H]4O)c23)cc1 [Example 18, 2-[3-(4-isopropyl-benzyl)-1H-indol-4-yloxy]-β-D-glucopyranoside]	–	88	inhibition at 10 µM (human SGLT1): 49%
OC[C@H]1O[C@@H](Oc2cccc3[nH]cc(Cc4ccc(-c5ccccc5)cc4)c23)[C@H](O)[C@@H](O)[C@@H]1O [Example 19, 2-(3-Biphenyl-4-ylmethyl-1H-indol-4-yloxy)-β-D-glucopyranoside]	–	101	inhibition at 10 µM (human SGLT1): 63%
OC[C@H]1O[C@@H](Oc2cccc3[nH]cc(Cc4ccc(Oc5ccccc5)cc4)c23)[C@H](O)[C@@H](O)[C@@H]1O [Example 26, 2-[3-(4-Phenoxy-benzyl)-1H-indol-4-yloxy]-β-D-glucopyranoside]	–	420	–
CCc1ccc(Cc2cn(C(C)C)c3cccc(O[C@@H]4O[C@H](CO)[C@@H](O)[C@H](O)[C@H]4O)c23)cc1 [Example 31, 2-[3-(4-Ethyl-benzyl)-1-isopropyl-1H-indol-4-yloxy]-β-D-glucopyranoside]	–	5110	–
COc1ccc(-c2c[nH]c3cccc(O[C@@H]4O[C@H](CO)[C@@H](O)[C@H](O)[C@H]4O)c23)cc1 [Example 33, 2-[3-(4-Methoxy-phenyl)-1H-indol-4-yloxy]-β-D-glucopyranoside]	–	–	inhibition at 10 µM (human SGLT2; 10 μM compound, read-out: CHOK-SGLT2 % Inh. @ 10 μM): 37%
